The values below come from US12514847B2, “Oxathiazin_dioxide for treating, preventing, inhibiting or reducing cytokine release” (Geistlich Pharma AG, priority 2019, dated 2026).

In series [1] the test system is primary human peripheral blood mononuclear cells (PBMCs). The experiment in a line: LPS stimulated human PBMC cytokine release. In kind it is cell-based. The settings on record: LPS 1 ng/ml, 48 hours; C-2250 500, 1000, 1500 μM; five donors. On the procedure:
The ability of C-2250 to suppress in vitro cytokine release from primary human peripheral blood mononuclear cells (PBMCs) was assessed. Lipopolysaccharide (LPS) inhibition by C-2250 was determined. PBMCs from five individual, normal healthy human volunteers were incubated with C-2250, followed by LPS stimulation for 48 hours. Detection of three different cytokines was performed using an antibody capture bead-based kit and flow cytometric analysis.
Cryopreserved PBMCs from five healthy human donors (IQ Biosciences, Catalog #I QB-PBMC103) were thawed and cultured in RPMI 1640 medium (Gibco RPMI-1640 Medium (ATCC, Catalog #30-2001) supplemented with 10% FCS, 2 mM L-glutamine, 100 IU/mL penicillin, 100 μg/mL streptomycin, 1 mM sodium pyruvate (all from ThermoFisher) with viability >85% as determined automated cell counter (Countess II FL Automated Cell Counter; ThermoFisher; Catalog #AMQAF1000) prior to experiments. For C-2250, a 73 mM stock was prepared in sterile Lactated Ringer's Solution less than two hours prior to the start of the assay by adding 100 mg C-2250 into 10 mL Lactated Ringer's Solution. Prior to use in the assay, the pH of the solution was adjusted to 7.3. 100 μl of PBMCs at 1.0×10^7 cells/mL were washed and re-suspended in tissue culture medium containing a fixed concentration (1 ng/ml) of LPS from E. coli, serotype 0111:B4. LPS stimulation was performed for 48 hours at 37° C., 5% CO2 prior to harvesting tissue culture supernatant for cytokine analysis. C-2250 was used at 500, 1000, and 1500 μM concentrations.
Each symbol represents the mean value of triplicate analysis of a single donor. Each bar per treatment group represents the mean value of all donors where the triplicate value of each donor is averaged.

In series [2] the test system is Raji, a human CD19 expressing target B cell line. In words: CD19 CAR-T co-culture assay with Raji cells: CAR-T mediated target cell lysis. In kind it is cell-based. The settings on record: E:T ratios 5:1, 10:1, 20:1. On the procedure: (§1) Human CD19 specific CAR-T effector cells from a donor were co-cultured with Raji, a human CD19 expressing target B cell line at different effector to target cell ratios of 5:1, 10:1, and 20:1 in the presence of C-2250. Co-culture was performed for 6 hours or 24 hours at 37° C., 5% CO2 prior to harvesting cells for CAR-T mediated target cell lysis or tissue culture supernatant for cytokine analysis. C-2250 was used at 500, 1000, and 1500 μM concentrations and was allowed to pre-incubate with CAR-T cells prior to addition of tumor target cells.
FIGS. 2A-2C show the results of CD19 CAR-T co-culture assay with CD-19 tumor cells (Raji) at 6 hours, CAR-T mediated tumor target cell in the present of increasing concentrations of C-2250 are shown (E:T ratios of 5:1, 10:1, and 20:1 are shown in FIGS. 2A, 2B, and 2C, respectively). FIGS. 3A-3C show the results of CD19 CAR-T co-culture assay with CD-19 tumor cells (Raji) at 24 hours, CAR-T mediated tumor target cell in the present of increasing concentrations of C-2250 are shown (E:T ratios of 5:1, 10:1, and 20:1 are shown in FIGS. 3A, 3B, and 3C, respectively).

Series [3] has as its system Human CD19 specific CAR-T effector cells. In words: CD19 CAR-T co-culture assay with Raji cells: cytokine release. In kind it is cell-based. The method, then: as §1
The test system of series [4] is Ramos cells (a human CD19 expressing B cell line). The experiment in a line: PBMC/Ramos co-culture with BLINCYTO: target cell cytotoxicity. The series is classed as cell-based. The settings on record: 24 hours. On the procedure: (§2) Inhibition of cytokine release by C-2250 in the presence of a bispecific CD19 T cell engager was assessed. Human PBMCs from ten donors were co-cultured with Ramos cells (a human CD19 expressing B cell line) in the presence of blinatumomab (BLINCYTO®), a T cell bispecific therapeutic, and C-2250 was added.
(§3) Co-culture was performed for 24 hours at 37° C., 5% CO2, prior to harvesting cells or tissue culture supernatant for analysis. C-2250 was used at 500, 1000, and 1500 μM concentrations and was allowed to pre-incubate with T cells prior to addition of BLINCYTO®.

The subject of series [5] is Human PBMCs. The experiment in a line: PBMC/Ramos co-culture with BLINCYTO: cytokine release. In kind it is cell-based. On the procedure:
as §2, §3

A short description of series [6]: Solubility in water / isotonicity. The series is classed as physicochemical.
The subject of series [7] is CAR T cell-induced severe or life-threatening CRS. The settings on record: two cohorts; adults and pediatric patients 2 years and older; cited from earlier work.
[8] abbreviates: E:T ratios 5:1, 10:1, 20:1, C-2250 500, 1000, 1500 μM.
[9] abbreviates: C-2250 500, 1000, 1500 μM with BLINCYTO 100 ng/ml, 24 hours.

Consider `O=S1(=O)CCOCN1` [C-2250, Tetrahydro1,4,5-oxathiazin-4-dioxide], for which, in series [1], the “inhibition of IL-1β cytokine release” value is reported as “dose-dependent inhibition”, the “inhibition of IL-6 cytokine release” value is “dose-dependent inhibition” and the “inhibition of TNF-α cytokine release” value is given as “dose-dependent inhibition”. In addition, the “CD19 CAR-T mediated CD19+ tumor target cell cytotoxicity” value in series [2] (6 hours) is “does not abrograte”. For the same compound, in series [2] (24 hours), the “CD19 CAR-T mediated CD19+ tumor target cell cytotoxicity” value was “does not abrograte”. Besides, the “cytokine release (including IL-1β, IL-6, TNF-α, and IFN-γ cytokines)” value in series [3] (CAR-T/Raji co-culture, summary statement) is “shuts down”. In series [3] (setting [8]), the “CD19 CAR-T cell mediated IFN-γ cytokine release” value was “reduces”, the “CD19 CAR-T cell mediated IL-2 cytokine release” value is “reduces” and the “CD19 CAR-T cell mediated TNF-α cytokine release” value is recorded as “reduces”. In series [4] (C-2250 500, 1000, 1500 μM with BLINCYTO 100 ng/ml), the “BLINCYTO mediated CD19+ tumor target cell cytotoxicity” value is “did not reduce”. In addition, in series [4] (no BLINCYTO, PBMC/Ramos co-culture), the “tumor target cytotoxicity in the absence of BLINCYTO” value is recorded as “increased”. Moreover, in series [5] (setting [9]), the “BLINCYTO T-cell mediated IFN-γ cytokine release” value is given as “reduced”, the “BLINCYTO T-cell mediated IL-1β cytokine release” value is reported as “reduced”, the “BLINCYTO T-cell mediated IL-2 cytokine release” value is given as “reduced” and the “BLINCYTO T-cell mediated IL-6 cytokine release” value is “reduced”. Further, in series [5] (setting [9]), the “BLINCYTO T-cell mediated TNF-α cytokine release” value is reported as “reduced”. Moreover, in series [5] (with BLINCYTO, summary statement), the “release of all of the tested cytokines” value was “reduced”. For the same compound, the “concentration of isotonic solution” value in series [6] amounted to 3.2%. In addition, the solubility in water result in series [6] (no PVP necessary) is reported as “very soluble”.
“tocilizumab: monoclonal antibody blocking the interleukin-6 (IL-6) receptor”: in series [7], the response rates is on record as 53%-69%.
